Test results: patent US20240400555A1 (Initial Therapeutics, Inc., priority 2023, published 2024)
Like-named read-outs stand apart in the source and are kept apart here.

Tested on: MV-4-11 cells
Experiment: Cell Viability Assay in MV-4-11 Cells
Format: cell-based
Conditions: Homo sapiens, MV4-11, 72 h
Outline: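 Luminescent ATP read-out (CellTiter-Glo) after 72 h compound treatment of MV-4-11 leukaemia cells (7,000 per well, IMDM plus 10% FBS). Values expressed relative to DMSO control and derived by four-parameter non-linear regression.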

[1] = MV-4-11 cells, 72 h, Cell-Titer Glo, read-out: IC50

Row | SMILES | IC50 [1] [nM] | IC50 [nM]
1 | NC(=O)Cc1ccc(-c2cc3c(N(C(=O)c4ccc(-n5nnc6cccnc65)cc4F)[C@@H]4CCCNC4)nccc3s2)cc1 [Example 570, N-[2-[4-(2-amino-2-oxo-ethyl)phenyl]thieno[3,2-c]pyridin-4-yl]-2-fluoro-N-[(3R)-3-piperidyl]-4-(triazolo[4,5-b]pyridin-3-yl)benzamide] | 110 | –
2 | O=C(c1ccc(-n2nnc3cccnc32)cc1F)N(c1nccc2sc(-c3ccc(C(F)(F)F)nc3)cc12)[C@@H]1CCCNC1 [Example 454, 2-fluoro-N-[(3R)-3-piperidyl]-4-(triazolo[4,5-b]pyridin-3-yl)-N-[2-[6-(trifluoromethyl)-3-pyridyl]thieno[3,2-c]pyridin-4-yl]benzamide] | 1000 | –
3 | O=C(O)c1nc(-c2cc3c(N(C(=O)c4ccc(-n5nnc6cccnc65)cc4F)[C@@H]4CCCNC4)nccc3s2)cs1 [Example 502, 4-[4-[[2-fluoro-4-(triazolo[4,5-b]pyridin-3-yl)benzoyl]-[(3R)-3-piperidyl]amino]thieno[3,2-c]pyridin-2-yl]thiazole-2-carboxylic acid] | 2100 | –
4 | Cc1cccc2ccnc(N(C(=O)c3ccc(Nc4nccc(NCc5ccccn5)n4)cc3F)[C@@H]3CCCNC3)c12 [Example 695, (R)-2-fluoro-N-(8-methylisoquinolin-1-yl)-N-(piperidin-3-yl)-4-((4-((pyridin-2-ylmethyl)amino)pyrimidin-2-yl)amino)benzamide] | 130 | –
5 | O=C(c1ccc(Nc2ncccn2)cc1F)N(c1nccc2cc(F)ccc12)[C@@H]1CCCNC1 [Example 591, (R)-2-fluoro-N-(6-fluoroisoquinolin-1-yl)-N-(piperidin-3-yl)-4-(pyrimidin-2-ylamino)benzamide] | > 2000 | –
6 | COC1CCN(c2ccnc(Nc3ccc(C(=O)N(c4nccc5cccc(C)c45)[C@@H]4CCCNC4)c(F)c3)n2)CC1 [Example 716, (R)-2-fluoro-4-((4-(4-methoxypiperidin-1-yl)pyrimidin-2-yl)amino)-N-(8-methylisoquinolin-1-yl)-N-(piperidin-3-yl)benzamide] | 34 | –
7 | O=C(c1ccc(-n2nnc3cccnc32)cc1F)N(c1nccc2sc(-c3cscn3)cc12)[C@@H]1CCCNC1 [Example 416, 2-fluoro-N-[(3R)-3-piperidyl]-N-(2-thiazol-4-ylthieno[3,2-c]pyridin-4-yl)-4-(triazolo[4,5-b]pyridin-3-yl)benzamide] | 180 | –
8 | Cc1cccc2ccnc(N(C(=O)c3ccc(Nc4nccc(NCc5ccccc5)n4)cc3F)[C@@H]3CCCNC3)c12 [Example 786, (R)-4-((4-(benzylamino)pyrimidin-2-yl)amino)-2-fluoro-N-(8-methylisoquinolin-1-yl)-N-(piperidin-3-yl) benzamide] | 120 | –
9 | C#Cc1csc2ccnc(N(C(=O)c3ccc(-c4nnc(C)s4)cc3F)[C@@H]3CCCNC3)c12 [Example 652, N-(3-ethynylthieno[3,2-c]pyridine-4-yl)-2-fluoro-4-(5-methyl-1,3,4-thiadiazol-2-yl)-N-[(3R)-3-piperidyl] benzamide] | 180 | –
10 | NS(=O)(=O)c1cccc(-c2cc3c(N(C(=O)c4ccc(-n5nnc6cccnc65)cc4F)[C@@H]4CCCNC4)nccc3s2)c1 [Example 446, 2-fluoro-N-[(3R)-3-piperidyl]-N-[2-(3-sulfamoylphenyl)thieno[3,2-c]pyridin-4-yl]-4-(triazolo[4,5-b]pyridin-3-yl)benzamide] | 1900 | –
11 | CNC(=O)c1cc(-c2cc3c(N(C(=O)c4ccc(-n5nnc6cccnc65)cc4F)[C@@H]4CCCNC4)nccc3s2)ccn1 [Example 374, 4-[4-[[2-fluoro-4-(triazolo[4,5-b]pyridin-3-yl)benzoyl]-[(3R)-3-piperidyl]amino]thieno[3,2-c]pyridin-2-yl]-N-methyl-pyridine-2-carboxamide] | 600 | –
12 | Cn1cc(-c2ccc(C(=O)N(c3nccc4sc(/C=C/C(N)=O)cc34)[C@@H]3CCCNC3)c(F)c2)nn1 [Example 486, N-[2-[(E)-3-amino-3-oxo-prop-1-enyl]thieno[3,2-c]pyridin-4-yl]-2-fluoro-4-(1-methyltriazol-4-yl)-N-[(3R)-3-piperidyl]benzamide] | > 10000 | –
13 | Cn1cc(-c2ccc(C(=O)N(c3nccc4sc(-c5cccc(C(=O)Nc6ccccc6)c5)cc34)[C@@H]3CCCNC3)c(F)c2)nn1 [Example 540, 2-fluoro-4-(1-methyltriazol-4-yl)-N-[2-[3-(phenylcarbamoyl)phenyl]thieno[3,2-c]pyridin-4-yl]-N-[(3R)-3-piperidyl]benzamide] | – | 470
14 | O=C(c1ccc(-n2nnc3cccnc32)cc1F)N(c1nccc2cc(-c3ncco3)ccc12)[C@@H]1CCCNC1 [Example 366, (R)-4-(3H-[1,2,3]triazolo[4,5-b]pyridin-3-yl)-2-fluoro-N-(6-(oxazol-2-yl)isoquinolin-1-yl)-N-(piperidin-3-yl)benzamide] | 290 | –
15 | CC(C)(C#N)c1cc(-c2cc3c(N(C(=O)c4ccc(-n5nnc6cccnc65)cc4F)[C@@H]4CCCNC4)nccc3s2)ccn1 [Example 463] | 320 | –
16 | Cc1cccc2ccnc(N(C(=O)c3cccc(C#CCCC(=O)Nc4ccncc4)c3)[C@@H]3CCCNC3)c12 [Example 516, (R)—N-(8-methylisoquinolin-1-yl)-3-(5-oxo-5-(pyridin-4-ylamino)pent-1-yn-1-yl)-N-(piperidin-3-yl)benzamide] | – | 750
17 | Cc1cccc2ccnc(N(C(=O)c3ccc(Nc4nccc(N5CC[C@H](N(C)C)C5)n4)cc3F)[C@@H]3CCCNC3)c12 [Example 967, 4-({4-[(3S)-3-(dimethylamino)pyrrolidin-1-yl]pyrimidin-2-yl}amino)-2-fluoro-N-(8-methylisoquinolin-1-yl)-N-[(3R)-piperidin-3-yl]benzamide] | 48 | –
18 | NC(=O)c1cccc(-c2cc3c(N(C(=O)c4ccc(-n5nnc6cccnc65)cc4F)[C@@H]4CCCNC4)nccc3s2)c1 [Example 452, N-[2-(3-carbamoylphenyl)thieno[3,2-c]pyridin-4-yl]-2-fluoro-N-[(3R)-3-piperidyl]-4-(triazolo[4,5-b]pyridin-3-yl)benzamide] | 180 | –
19 | Cn1cc(-c2ccc(C(=O)N(c3nccc4scc(Cl)c34)[C@@H]3CCCNC3)c(F)c2)nn1 [Example 795, (R)—N-(3-chlorothieno[3,2-c]pyridin-4-yl)-2-fluoro-4-(1-methyl-1H-1,2,3-triazol-4-yl)-N-(piperidin-3-yl)benzamide] | 130 | –

Second part, led by results:

Row | IC50 [1] [nM] | SMILES | IC50 [nM]
20 | 48 | [2H]C([2H])([2H])c1nnc(-c2ccc(C(=O)N(c3nccc4cc(C)cc(C)c34)[C@@H]3CCCNC3)c(F)c2)s1 [Example 906, N-(6,8-dimethyl-1-isoquinolyl)-2-fluoro-N-[(3R)-3-piperidyl]-4-[5-(trideuteriomethyl)-1,3,4-thiadiazol-2-yl]benzamide] | –
21 | 100 | COc1ccnc(Nc2ccc(C(=O)N(c3nccc4cccc(C)c34)[C@@H]3CCCNC3)c(F)c2)n1 [Example 951, 2-fluoro-4-[(4-methoxypyrimidin-2-yl)amino]-N-(8-methylisoquinolin-1-yl)-N-[(3R)-piperidin-3-yl]benzamide] | –
22 | 92 | Cc1cccc2ccnc(N(C(=O)c3ccc(Nc4nccc(/C=C/CO)n4)cc3F)[C@@H]3CCCNC3)c12 [Example 748, (R,E)-2-fluoro-4-((4-(3-hydroxyprop-1-en-1-yl)pyrimidin-2-yl)amino)-N-(8-methylisoquinolin-1-yl)-N-(piperidin-3-yl)benzamide] | –
23 | 400 | Cc1cccc2ccnc(N(C(=O)c3ccc(Nc4nccc(C5CCNCC5)n4)cc3F)[C@@H]3CCCNC3)c12 [Example 662, (R)-2-fluoro-N-(8-methylisoquinolin-1-yl)-N-(piperidin-3-yl)-4-((4-(piperidin-4-yl)pyrimidin-2-yl)amino)benzamide] | –
24 | 51 | Cc1cc(Cl)cc2ccnc(N(C(=O)c3ccc(-c4cn(C)nn4)cn3)[C@@H]3CCCNC3)c12 [Example 812, (R)—N-(6-chloro-8-methylisoquinolin-1-yl)-5-(1-methyl-1H-1,2,3-triazol-4-yl)-N-(piperidin-3-yl)picolinamide] | –
25 | 570 | Cc1cc(C)c2c(N(C(=O)c3ccc(-c4nc(C)no4)nc3)[C@@H]3CCCNC3)nccc2c1 [Example 916, N-(6,8-dimethyl-1-isoquinolyl)-6-(3-methyl-1,2,4-oxadiazol-5-yl)-N-[(3R)-3-piperidyl]pyridine-3-carboxamide] | –
26 | 59 | Cc1cccc2ccnc(N(C(=O)c3ccc(Nc4nccc(N5CC[C@@H](O)C5)n4)cc3F)[C@@H]3CCCNC3)c12 [Example 684, 2-fluoro-4-((4-((R)-3-hydroxypyrrolidin-1-yl)pyrimidin-2-yl)amino)-N-(8-methylisoquinolin-1-yl)-N—((R)-piperidin-3-yl)benzamide] | –
27 | 28 | Cc1cccc2ccnc(N(C(=O)c3ccc(-n4nnc5cccnc54)cc3Cl)[C@@H]3CCCNC3)c12 [Example 310, (R)-4-(3H-[1,2,3]triazolo[4,5-b]pyridin-3-yl)-2-chloro-N-(8-methylisoquinolin-1-yl)-N-(piperidin-3-yl) benzamide] | –
28 | 190 | COCC#Cc1ccnc(Nc2ccc(C(=O)N(c3nccc4cccc(C)c34)[C@@H]3CCCNC3)c(F)c2)n1 [Example 751, (R)-2-fluoro-4-((4-(3-methoxyprop-1-yn-1-yl)pyrimidin-2-yl)amino)-N-(8-methylisoquinolin-1-yl)-N-(piperidin-3-yl)benzamide] | –
29 | 980 | Cc1nnc(-c2ccc(C(=O)N(c3nccc4cc(F)ccc34)[C@@H]3CCCNC3)cc2)s1 [Example 804, (R)—N-(6-fluoroisoquinolin-1-yl)-4-(5-methyl-1,3,4-thiadiazol-2-yl)-N-(piperidin-3-yl)benzamide] | –
30 | 1900 | CNc1cccnc1Nc1ccc(C(=O)N(c2nccc3cccc(C)c23)[C@@H]2CCCNC2)c(F)c1 [Example 726, (R)-2-fluoro-4-((3-(methylamino)pyridin-2-yl)amino)-N-(8-methylisoquinolin-1-yl)-N-(piperidin-3-yl)benzamide] | –
